Patent publication US20240174671A1, “New 2,3-Dihydro-1H-pyrrolo[3,2-b]pyridine Derivatives as Sigma Ligands” (ACONDICIONAMIENTO TARRASENSE, priority 2021, published 2024)
Like-named read-outs stand apart in the source and are kept apart here.

Key:
human σ2/TMEM97 receptor = target: T1, human σ2/TMEM97 receptor (Homo sapiens, UniProt Q5BJF2); assay: Binding assay to human σ2/TMEM97 receptor ([3H]-DTG); settings: transfected HEK-293 membranes, 10 nM [3H]-DTG, 25° C., 120 minutes; read-out: Binding σ-[…] (binding to σ2-receptor expressed as Ki)
T1 construct: expressed in transfected cells; host or cells: HEK-293
T1 sequence (Q5BJF2 whole entry): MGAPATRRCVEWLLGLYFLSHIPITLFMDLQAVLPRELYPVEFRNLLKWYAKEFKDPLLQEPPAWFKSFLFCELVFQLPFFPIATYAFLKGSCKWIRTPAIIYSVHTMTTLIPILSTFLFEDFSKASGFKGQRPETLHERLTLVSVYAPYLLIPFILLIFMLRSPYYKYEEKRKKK
Protocol: Binding Assay to Human σ2/TMEM97 Receptor.
Transfected HEK-293 membranes (15 μg) were incubated with 10 nM [^3H]-1,3-Di-o-tolylguanidine (DTG) in assay buffer containing Tris-HCl 50 mM at pH 8.0. NSB (non-specific binding) was measured by adding 10 μM haloperidol. The binding of the test compound was measured at either one concentration (% inhibition at 1 or 10 µM) or five different concentrations to determine affinity values (Ki). Plates were incubated at 25° C. for 120 minutes. After the incubation period, the reaction mix was transferred to MultiScreen HTS, FC plates (Millipore), filtered and washed 3 times with ice-cold 10 mM Tris-HCL (pH 8.0). Filters were dried and counted at approximately 40% efficiency in a MicroBeta scintillation counter (Perkin-Elmer) using EcoScint liquid scintillation cocktail.

human σ1 receptor = target: T2, human σ1 receptor (Homo sapiens, UniProt Q99720); assay: Human σ1 receptor radioligand assay ([3H](+)-pentazocine); assay type: binding
T2 construct: expressed in transfected cells; host or cells: HEK-293
T2 sequence (Q99720 whole entry): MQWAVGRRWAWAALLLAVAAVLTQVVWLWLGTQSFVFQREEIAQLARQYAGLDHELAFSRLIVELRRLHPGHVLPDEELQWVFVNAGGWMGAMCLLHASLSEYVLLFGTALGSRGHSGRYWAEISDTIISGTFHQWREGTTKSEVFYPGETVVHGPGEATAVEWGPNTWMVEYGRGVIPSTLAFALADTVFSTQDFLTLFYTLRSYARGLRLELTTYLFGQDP
Protocol: Human σ1 Receptor Radioligand Assay
NBS (non-specific binding) was measured by adding 10 μM haloperidol. The binding of the test compound was measured at either one concentration (% inhibition at 1 or 10 µM) or five different concentrations to determine affinity values (Ki). Plates were incubated at 37° C. for 120 minutes. After the incubation period, the reaction mix was then transferred to MultiScreen HTS, FC plates (Millipore), filtered and plates were washed 3 times with ice-cold 10 mM Tris-HCL (pH7.4). Filters were dried and counted at approximately 40% efficiency in a MicroBeta scintillation counter (Perkin-Elmer) using EcoScint liquid scintillation cocktail.

[1] = transfected HEK-293 membranes, 5 nM [3H](+)-pentazocine, 37° C., 120 minutes, read-out: Binding σ-[…] (binding to σ1-receptor expressed as Ki)

Row | Ki (human σ2/TMEM97 receptor) [nM] | Ki (human σ1 receptor; [1]) [nM] | SMILES | Ki (human σ1 receptor) [nM]
1 | 100 to 500 | > 1000 | CN(Cc1cccc(C#N)c1)C1CCN(C(=O)N2CC(C)(C)c3ncccc32)CC1 [Example 83, 3-(((1-(3,3-dimethyl-2,3-dihydro-1H-pyrrolo[3,2-b]pyridine-1-carbonyl)piperidin-4-yl)(methyl)amino)methyl)benzonitrile] | 
2 | < 100 | 100 to 500 | Cc1ccc2c(n1)C(C)(C)CN2C(=O)N1CCC(N(C)Cc2ccc(N(C)C)cc2)CC1 [Example 68, (4-((4-(dimethylamino)benzyl)(methyl)amino)piperidin-1-yl)(3,3,5-trimethyl-2,3-dihydro-1H-pyrrolo[3,2-b]pyridin-1-yl)methanone] | 
3 | < 100 | < 100 | CC1(C)CN(C(=O)N2CCC3(CCN(Cc4ccc(C#N)cc4)CC3)C2)c2cccnc21 [Example 151, 4-((2-(3,3-dimethyl-2,3-dihydro-1H-pyrrolo[3,2-b]pyridine-1-carbonyl)-2,8-diazaspiro[4.5]decan-8-yl)methyl)benzonitrile] | 
4 | > 1000 | < 100 | Cc1ccc2c(n1)C(C)(C)CN2C(=O)NC1CCN(Cc2ccc(F)c(F)c2)CC1 [Example 44, N-(1-(3,4-difluorobenzyl)piperidin-4-yl)-3,3,5-trimethyl-2,3-dihydro-1H-pyrrolo[3,2-b]pyridine-1-carboxamide] | 
5 | > 1000 | 500 to 1000 | Cc1ccc2c(n1)CCN2C(=O)NC[C@@H](c1ccccc1)N(C)C [Example 6, (R)—N-(2-(dimethylamino)-2-phenylethyl)-5-methyl-2,3-dihydro-1H-pyrrolo[3,2-t]pyridine-1-carboxamide] | 
6 | < 100 | < 100 | CC1(C)CN(C(=O)N2CCC3(CCN(Cc4cc(C#N)c(F)cc4F)CC3)CC2)c2cccnc21 [Example 167, 5-((9-(3,3-dimethyl-2,3-dihydro-1H-pyrrolo[3,2-b]pyridine-1-carbonyl)-3,9-diazaspiro[5.5]undecan-3-yl)methyl)-2,4-difluorobenzonitrile] | 
7 | 100 to 500 | 500 to 1000 | CC(C)CCN1CCC(CNC(=O)N2CC(C)(C)c3ncccc32)CC1 [Example 106, N-((1-isopentylpiperidin-4-yl)methyl)-3,3-dimethyl-2,3-dihydro-1H-pyrrolo[3,2-b]pyridine-1-carboxamide] | 
8 | < 100 | < 100 | CC(C)CCN(C)[C@H]1CCCN(C(=O)N2CCc3ncccc32)C1 [Example 64, (S)-(2,3-dihydro-1H-pyrrolo[3,2-b]pyridin-1-yl)(3-(isopentyl(methy)amino)piperidin-1-yl)methanone] | 
9 | 100 to 500 | > 1000 | Cc1ccc2c(n1)C(C)(C)CN2C(=O)N1CCC(NCc2ccccc2)CC1 [Example 115, (4-(benzylamino)piperidin-1-yl)(3,3,5-trimethyl-2,3-dihydro-1H-pyrrolo[3,2-b]pyridin-1-yl)methanone] | 
10 | 100 to 500 | 100 to 500 | Cc1ccc2c(n1)C(C)(C)CN2C(=O)N[C@@H]1CCN(Cc2ccccc2)C1 [Example 18, (R)—N-(1-benzylpyrrolidin-3-yl)-3,3,5-trimethyl-2,3-dihydro-1H-pyrrolo[3,2-b]pyridine-1-carboxamide] | 
11 | < 100 | 500 to 1000 | Cc1ccc2c(n1)C(C)(C)CN2C(=O)N1CCC2(CCN(CC3CCOCC3)CC2)C1 [Example 105, (8-((tetrahydro-2H-pyran-4-yl)methyl)-2,8-diazaspiro[4.5]decan-2-yl)(3,3,5-trimethyl-2,3-dihydro-1H-pyrrolo[3,2-t]pyridin-1-yl)methanone] | 

Row | SMILES | Ki (human σ2/TMEM97 receptor) [nM] | Ki (human σ1 receptor; [1]) [nM] | Ki (human σ1 receptor) [nM]
12 | Cc1ccc2c(n1)C(C)(C)CN2C(=O)[C@H]1CC[C@H](N(C)Cc2ccccc2F)CC1 [Example 183, ((1r,4r)-4-((2-fluorobenzyl)(methyl)amino)cyclohexyl)(3,3,5-trimethyl-2,3-dihydro-1H-pyrrolo[3,2-b]pyridin-1-yl)methanone] | < 100 |  | < 100
